Data reported in US20130251632A1, “APOPTOSIS PET IMAGING AGENTS” (GE HEALTHCARE LIMITED, priority 2010, published 2013).

Assay: Affinity for phosphatidylethanolamine, Biacore 3000 with L1 chip and captured liposomes
Format: binding
Details: POPE/POPC liposomes (20% PE)
From the text: A Biacore 3000 (GE Healthcare, Uppsala) was equipped with an L1 chip. Liposomes made of POPE/POPC (20% PE) were applied for the affinity study using the capture technique recommended by the manufacturer. Each run consisted of activation of the chip surface, immobilization of liposomes, binding of peptide and wash off of both liposomes and peptide (regeneration). Similar applications can be found in Frostell-Karlsson et al [Pharm. Sciences, V.94 (1), (2005)]. Thorough washing of needle, tubing and liquid handling system with running buffer was performed after each cycle.
BIACORE software: The BIACORE control software including all method instructions was applied. A method with commands was also written in the BIACORE Method Definition Language (MDL) to have full control over pre-programmed instructions. BIACORE evaluation software was applied for analysing the sensorgrams.

duramycin
ka: ~20000 M⁻¹ s⁻¹
